Laboratory results taken from patent publication US5879659A, “Ternary radiopharmaceutical complexes” (DuPont Pharmaceuticals Company, priority 1997, dated 1999).

System: thrombi
Assay: Canine Arteriovenous Shunt model
Assay type: in vivo, dog
Settings: first 1 hour shunt period, 150 μCi/kg, i.v.
Experimental: Canine Arteriovenous Shunt Model: Adult mongrel dogs of either sex (9-13 kg) were anesthetized with pentobarbital sodium (35 mg/kg,i.v.) and ventilated with room air via an endotracheal tube (12 strokes/min, 25 ml/kg). For arterial pressure determination, the left carotid artery was cannulated with a saline-filled polyethylene catheter (PE-240) and connected to a Statham pressure transducer (P23ID; Oxnard, Calif.). Mean arterial blood pressure was determined via damping the pulsatile pressure signal. Heart rate was monitored using a cardiotachometer (Biotach, Grass Quincy, Mass.) triggered from a lead II electrocardiogram generated by limb leads. A jugular vein was cannulated (PE-240) for drug administration. The both femoral arteries and femoral veins were cannulated with silicon treated (Sigmacote, Sigma Chemical Co. St Louis, Mo.), saline filled polyethylene tubing (PE-200) and connected with a 5 cm section of silicon treated tubing (PE-240) to form an extracorporeal arterio-venous shunts (A-V). Shunt patency was monitored using a doppler flow system (model VF-1, Crystal Biotech Inc, Hopkinton, Mass.) and flow probe (2-2.3 mm, Titronics Med. Inst., Iowa City, Iowa) placed proximal to the locus of the shunt. All parameters were monitored continuously on a polygraph recorder (model 7D Grass) at a paper speed of 10 mm/min or 25 mm/sec.
On completion of a 15 min post surgical stabilization period, an occlusive thrombus was formed by the introduction of a thrombogenic surface (4-0 braided silk thread, 5 cm in length, Ethicon Inc., Somerville, N.J.) into the shunt one shunt with the other serving as a control. Two consecutive 1 hr shunt periods were employed with the test agent administered as an infusion over 5 min beginning 5 min before insertion of the thrombogenic surface. At the end of each 1 hr shunt period the silk was carefully removed and weighed and the % incorporation determined via well counting. Thrombus weight was calculated by subtracting the weight of the silk prior to placement from the total weight of the silk on removal from the shunt. […]

^99m Tc(tricine) (tris(1-pyrazolyl)borohydride)-Cyclo(D-Val-NMeArg-Gly-Asp-Mamb(hydrazino-nicotinyl-5-Aca)) [Example 1]
uptake in thrombi compared with positive control (In-111-platelets) and negative controls (Tc-99m-albumin, I-125-fibrinogen) (mixed arterial and venous conditions): taken up in thrombi under both mixed arterial and venous conditions equivalently to the positive control and to a significantly greater extent than the negative controls | thrombus-to-blood ratio (target-to-background ratio) (mixed arterial conditions): 114 | thrombus-to-blood ratio (target-to-background ratio) (venous conditions): 3.1
